Where “and” joins values, the source holds several entries; their conditions need not be identical. Identical values can stand only once. Like-named read-outs stand apart in the source and are kept apart here.
What was measured:
[1] = tested on: mESC-derived neural stem cells (mESCn)
[2] = tested on: hESC-derived neural crest cells (NCC)
[3] = for Free conc. (FCC; free plasma concentration): calculated from CC and plasma protein binding
[4] = cited from earlier work; for Clinical conc. (CC; total/maximal plasma concentration): human plasma, literature data mining, ref per-compound studies in Fig. S4; for Plasma concentration range / Plasma concentration, average: ref Laske et al. (2009)
plasma proteins = details: cited from earlier work
[5] = tested on: migration of hESC-derived neural crest cells (NCC); test: MINC assay (migration inhibition of neural crest cells, UKN2); details: 48 h, in a non-cytotoxic concentration range
[6] = head of Fig. S4 entry; compiled from in vivo/in vitro studies and simulations
rat fetuses = tested on: rat fetuses; parameters: method as in Machera 1995; details: cleft palate and hydrocephaly as most common malformations; ref Machera 1995; cited from earlier work
zebrafish embryos = tested on: zebrafish embryos; parameters: method as in Hermsen et al. (2012); details: pericardial edema, malformations of head and heart; ref Hermsen et al. (2012); cited from earlier work
rat whole embryo culture = tested on: rat whole embryo culture; parameters: method as in Robinson et al. (2012); details: 48 hours, ref Robinson et al. (2012), cited from earlier work
dopaminergic PC12 cells = tested on: dopaminergic PC12 cells; parameters: method as in Heusinkveld et al. (2013); details: ref Heusinkveld et al. (2013); cited from earlier work
[7] = tested on: neural embryonic stem cell test (ESTn); parameters: method as in Theunissen et al. (2012); details: ref Theunissen et al. (2012); cited from earlier work
whole embryo culture = tested on: whole embryo culture; parameters: method as in Piersma et al. (2008); details: ref Piersma et al. (2008); cited from earlier work
[8] = tested on: embryonic stem cell differentiation; parameters: method as in de Jong et al. 2009; details: ref de Jong et al. 2009; cited from earlier work
[9] = cited from earlier work; for Geometric mean concentration in maternal serum: ref Eskenazi et al. (2013); for Average concentration in breast milk: ref Gascon et al. (2012)
rats [10] = details: single oral dose to dams on gestational day 6, Wistar rat; ref Kuriyama et al. (2005); cited from earlier work
fetal growth = tested on: fetal growth; parameters: method as in Govarts et al. (2012); details: per 1 µg/l increase in cord serum PCB-153; ref Govarts et al. (2012); cited from earlier work
rats [11] = details: single dose, oral gavage, adult male Long-Evans rats; ref Crofton et al. (2011); cited from earlier work
[12] = 50 patients with Alzheimer's disease

What does the source list for C[C@]12CC[C@H](O)CC1=CC[C@@H]1[C@@H]2CC[C@]2(C)C(c3cccnc3)=CC[C@@H]12 [Abiraterone]?
Highest non-cytotoxic conc. in HEK293 (HEK293 cells; human): 2.0 µM; Highest non-cytotoxic conc. in mESCn ([1]; mouse): 0.97 µM; Concentration for hit finding in NCC (highest non-cytotoxic concentration in the UKN2 test system) ([2]; human): 2000 nM; Free conc. (FCC; free plasma concentration) [3]: 7.8 nM; Clinical conc. (CC; total/maximal plasma concentration) [4]: 647.3 nM; Bound to plasma proteins (plasma proteins; ref Gurav et al. (2012)): > 98.8%; Effect on NCC migration in concentration-response study [5]: concentration-dependent effect

What does the source list for COCCCOc1cc(C[C@@H](C[C@H](N)[C@@H](O)C[C@H](C(=O)NCC(C)(C)C(N)=O)C(C)C)C(C)C)ccc1OC [Aliskiren]?
Free conc. (FCC; free plasma concentration) [3]: 166 nM; Clinical conc. (CC; total/maximal plasma concentration) [4]: 326.5 nM; Protein binding (plasma proteins; moderate, ref Vaidyanathan et al. 2008): 47-51%

With CN(C)CCCN1c2ccccc2Sc2ccc(Cl)cc21 [Chlorpromazine] as the molecule, how does the “Bound to plasma protein albumin” value (plasma proteins; plasma) read?
Its value is “around 85%”.

Which results are given for CC(C1CC1)C(O)(Cn1cncn1)c1ccc(Cl)cc1 (stereo not drawn) [Cyproconazole]?
DT concentration [6]: 65 to 118 µM; Suggested NOEL (rat fetuses): 20 mg/kg; Concentration increasing teratogenic effects (zebrafish embryos): 65000 nM; Malformations (rat whole embryo culture; 1 mM): 50%; Malformations (rat whole embryo culture; 1.7 mM): 100%; Inhibitory concentration on depolarization-evoked intracellular calcium concentration (dopaminergic PC12 cells): 65 µM; Concentration reducing cell viability to 80% [7]: 117600 nM; Effect on NCC migration in concentration-response study [5]: concentration-dependent effect

For COC1=C2C[C@@H](C)C[C@H](OC)[C@H](O)[C@@H](C)/C=C(\C)[C@H](OC(N)=O)[C@@H](OC)/C=C\C=C(/C)C(=O)NC(=CC1=O)C2=O [Geldanamycin], which “Clinical conc. (CC; total/maximal plasma concentration)” value [4] is on record?
The value was 800 nM.

And the “Effect on NCC migration in concentration-response study” value (“Effect on NCC migration” below) [5]?
Its value is “concentration-dependent effect”.

With Cc1ccc(NC(=O)c2ccc(CN3CCN(C)CC3)cc2)cc1Nc1nccc(-c2cccnc2)n1 [Imatinib] as the molecule, how does the “Concentration for hit finding in NCC (highest non-cytotoxic concentration in the UKN2 test system)” value ([2]; human) read?
The value was 5000 nM.

And the “Effect on NCC migration” value [5]?
The value was “concentration-dependent effect”.

Which results are given for COCC(=O)O [Methoxyacetic acid]?
DT concentration [6]: 7500 µM; BMC5 (whole embryo culture): 1.6 mM; BMC50 [8]: 2.4 mM; Estimated human blood concentration ([9]; due to permitted occupational EGME exposure, ref Welsch 2005): approximately 60 μM; Human exposure concentration ([9]; head of Fig. S4 entry, ref studies in Fig. S4): 60 µM

For COC(=O)c1ccc2c(c1)NC(=O)/C2=C(\Nc1ccc(N(C)C(=O)CN2CCN(C)CC2)cc1)c1ccccc1 [Nintedanib/ BIBF 1120, Nintedanib], which “Free conc. (FCC; free plasma concentration)” value [3] is on record?
The value was 70.8 nM.

And the “Clinical conc. (CC; total/maximal plasma concentration)” value [4]?
The value was 74.2 nM.

Which “Highest non-cytotoxic conc. in HEK293” value (HEK293 cells; 48 h) does the source give for CC[C@H](C)[C@@H]1NC(=O)[C@H](Cc2ccc(O)cc2)NC(=O)[C@@H](N)CSSC[C@@H](C(=O)N2CCC[C@H]2C(=O)N[C@@H](CC(C)C)C(=O)NCC(N)=O)NC(=O)[C@H](CC(N)=O)NC(=O)[C@H](CCC(N)=O)NC1=O [Oxytocin] here?
Its value is greater than 0.1 µM.

And the “Highest non-cytotoxic conc. in mESCn” value ([1]; 48 h)?
Its value is greater than 100.0 µM.

And the “Concentration for hit finding in NCC (highest non-cytotoxic concentration in the UKN2 test system)” value ([2]; 48 h)?
The value was 100 nM.

And the “Free conc. (FCC; free plasma concentration)” value [3]?
The value was 2.0 nM.

What about the “Clinical conc. (CC; total/maximal plasma concentration)” value [4] of the same molecule?
The value was 2.0 nM.

What about the “Binding state in plasma” value (plasma proteins; ref Fabian et al. (1969)) of the same molecule?
Its value is “unbound”.

Which results are given for Brc1ccc(Oc2cc(Br)c(Br)cc2Br)c(Br)c1 [PBDE-99, 2,2′,4,4′,5-pentabromodiphenyl ether]?
Dose causing hyperactivity and impaired spermatogenesis in offspring (rats [10]): 0.11 µmol/kg; Geometric mean concentration in maternal serum ([9]; converted): 25 ng/l and 44 pM; Average concentration in breast milk ([9]; converted): 1 ng/l and 1.8 pM; Geometric mean concentration in maternal serum [9]: 4.5 ng/g; Average concentration in breast milk [9]: 0.27 ng/g lw; Effect on NCC migration in concentration-response study [5]: concentration-dependent effect

With Clc1cc(Cl)c(-c2cc(Cl)c(Cl)cc2Cl)cc1Cl [PCB-153] as the molecule, how does the DT concentration [6] read?
The DT concentration was 0.000388 µM.

And the “Reduction of birth weight” value (fetal growth)?
Its value is 150 g.

And the “Median cord serum concentration” value ([9]; cohort of 7990 women, ref Govarts et al. (2012))?
The value was 140 ng/l and 388 pM.

And the Maternal serum concentration ([9]; ref Covaci et al. (2002))?
Its Maternal serum concentration is 670 ± 350 pg/mL.

What about the “Effect on NCC migration” value [5] of the same molecule?
The value was “concentration-dependent effect”.

Which results are given for O=C(NC[C@H]1CN(c2ccc(N3CCOCC3=O)cc2)C(=O)O1)c1ccc(Cl)s1 [Rivaroxaban]?
Free conc. (FCC; free plasma concentration) [3]: 41.4 nM; Clinical conc. (CC; total/maximal plasma concentration) [4]: 689.6 nM; Unbound fraction in plasma (plasma proteins; PBPK model study, ref Grillo et al. (2012)): 6%

What does the source list for O=C(Nc1c(Cl)cncc1Cl)c1ccc(OC(F)F)c(OCC2CC2)c1 [Roflumilast]?
Free conc. (FCC; free plasma concentration) [3]: 0.2 nM; Clinical conc. (CC; total/maximal plasma concentration) [4]: 18.0 nM

What does the source list for CCCc1nn(C)c2c(=O)[nH]c(-c3cc(S(=O)(=O)N4CCN(C)CC4)ccc3OCC)nc12 [Sildenafil]?
Free conc. (FCC; free plasma concentration) [3]: 11.0 nM; Plasma protein binding (plasma proteins; ref Purvis et al. (2002)): approximately 95%

Which “Free conc. (FCC; free plasma concentration)” value [3] does the source give for N[C@@H](CC(=O)N1CCn2c(nnc2C(F)(F)F)C1)Cc1cc(F)c(F)cc1F [Sitagliptin] here?
The value was 1200 nM.

And the “Clinical conc. (CC; total/maximal plasma concentration)” value [4]?
The value was 1900 nM.

And the “Binding to plasma proteins” value (plasma proteins; ref Herman et al. (2006a))?
The value was 38%.

Which “Highest non-cytotoxic conc. in HEK293” value (HEK293 cells; human) does the source give for Nc1ccc(S(=O)(=O)Nc2ncccn2)cc1 [Sulfadiazine] here?
Its value is 100.0 µM.

What about the “Highest non-cytotoxic conc. in mESCn” value ([1]; mouse) of the same molecule?
The value was greater than 50.0 µM.

And the “Concentration for hit finding in NCC (highest non-cytotoxic concentration in the UKN2 test system)” value ([2]; human)?
The value was 50000 nM.

And the “Clinical concentration range (average Cmax)” value ([4]; human, in vivo)?
The value was 50-110.

What about the Cmax ([4]; human, in vivo) of the same molecule?
The Cmax was 200000 to 440000 nM.

What about the “Degree of protein binding” value (plasma proteins; human) of the same molecule?
Its value is 50%.

With CCC[C@H](NC(=O)[C@@H]1[C@H]2CCC[C@H]2CN1C(=O)[C@@H](NC(=O)[C@@H](NC(=O)c1cnccn1)C1CCCCC1)C(C)(C)C)C(=O)C(=O)NC1CC1 [Telaprevir] as the molecule, how does the “Free conc. (FCC; free plasma concentration)” value [3] read?
The value was 1600 nM.

What about the “Clinical conc. (CC; total/maximal plasma concentration)” value [4] of the same molecule?
The value was 5100 nM.

Which “Free conc. (FCC; free plasma concentration)” value [3] does the source give for C/C(O)=C(\C#N)C(=O)Nc1ccc(C(F)(F)F)cc1 [Teriflunomide] here?
The value was 54.0 nM.

What about the “Clinical conc. (CC; total/maximal plasma concentration)” value [4] of the same molecule?
Its value is 10800 nM.

What about the “Portion of free teriflunomide” value (plasma proteins; almost constant, ref not given) of the same molecule?
The value was 0.5%.

What about the “Bound to plasma proteins” value (plasma proteins; primarily to albumin, no unit and ref not given) of the same molecule?
The value was greater than 99.3.

For CC(C)(C)C(O)C(Oc1ccc(Cl)cc1)n1cncn1 (stereo not drawn) [triadimenol], which “Dose causing transient CNS toxicity (hyperactivity, stereotyped behavior)” value (rats [11]) is on record?
Its value is 50 mg/kg.

Which “Clinical conc. (CC; total/maximal plasma concentration)” value [4] does the source give for Erythropoietin here?
The value was 0.3 nM.

For Neuregulin, which “Clinical conc. (CC; total/maximal plasma concentration)” value [4] is on record?
The value was 6300 nM.

B1: granulocyte colony-stimulating factor (protein, UniProt P09919 31-207, looked up)
Granulocyte …: TPLGPASSLPQSFLLKCLEQVRKIQGDGAALQEKLVSECATYKLCHPEELVLLGHSLGIPWAPLSSCPSQALQLAGCLSQLHSGLFLYQGLLQALEGISPELGPTLDTLQLDVADFATTIWQQMEELGMAPALQPTQGAMPAFASAFQRRAGGVLVASHLQSFLEVSYRVLRHLAQP
Which Clinically relevant concentration ([3]; calculated from Laske et al. (2009) data) does the source give for B1 here?
The Clinically relevant concentration was 25 pg/mL.

And the Plasma concentration range ([4]; 50 healthy controls)?
Its Plasma concentration range is 5 to 80 pg/mL.

What about the “Plasma concentration, average” value ([4]; 50 healthy controls) of the same molecule?
The value was ~ 28 pg/ml.

What about the Plasma concentration range [4, 12] of the same molecule?
Its Plasma concentration range is 10 to 40 pg/mL.

And the “Plasma concentration, average” value [4, 12]?
The value was ~ 20 pg/ml.

And the “Clinical conc. (CC; total/maximal plasma concentration)” value [4]?
The value was 0.0013 nM.

From publication PMC3996367, “Profiling of drugs and environmental chemicals for functional impairment of neural crest migration in a novel stem cell-based test battery” (Archives of Toxicology, 2014)
